According to US20060287316A1, “METHOD FOR IMPROVING PHARMACOKINETICS OF PROTEASE INHIBITORS AND PROTEASE INHIBITOR PRECURSORS” (priority 2005, published 2006):

What was measured:
[1] = Plasma concentration after single oral dose in rats (in vivo cleavage of the phosphate group); set-up: species or system male Sprague-Dawley rats; conditions: 50 mg/Kg po, vehicle Mix, 3 rats
Protocol: To assess the extent of in vivo cleavage of the phosphate group from the putative compounds, PL-100, PL-462 (based on PL-100), PL-337 and PL-515 (based on PL-337) compounds were administered po (per os, (i.e., by mouth)) (50 mg/kg) to male Sprague-Dawley rats and their plasma concentration measured at different time intervals post-administration.
All test articles (PL-100, PL-462, PL-337 and PL-515) were prepared in different vehicle at the final concentration of 25 mg/mL. The vehicle composition is as follows: (1) 20% ethanol; 50% propylene glycol; 0.05% w/v Tween 20 and water (Mix); (2) PBS buffer (PBS).
Test articles were administered to male Sprague-Dawley rats at a single oral dose of 50 mg/kg. Each article was tested in three rats. Blood samples (0.2-0.3 mL) were collected at the post-dose time of 10, 20, 40, 60, 120, 180 and 360 minutes. The harvested blood was centrifuged to isolate plasma. The resulting plasma was separated and stored at −70° C.
Plasma samples together with standards and quality control samples were treated to precipitate proteins, then analyzed by HPLC-MS, for the presence of PL-462, PL-100, PL-515 and PL-337.

[2] = Partition coefficient (LogP), octanol / phosphate buffer; type: physicochemical; conditions: octanol / phosphate buffer pH 7.4
Excerpt: The concentration of the compounds in the phases was detected by LC-MS.

AUC [1]: 1.180 ± 0.196 μg/hr * ml
Cmax ([1]; male, Sprague-Dawley, rat, plasma): 681 ± 131 nM
Tmax ([1]; male, Sprague-Dawley, rat, plasma, read-out: Tmax (converted)): 1 h
logP [2]: 3.8
Structure (SMILES): COC(=O)N[C@H](C(=O)NCCCC[C@@H](CO)N(CC(C)C)S(=O)(=O)c1ccc(N)c(F)c1)C(c1ccccc1)c1ccccc1 [PL-337, (1-{5-[(4-amino-3-fluoro-benzenesulfonyl)-isobutyl-amino]-6-hydroxy-hexylcarbamoyl}-2,2-diphenyl-ethyl)-carbamic acid methyl ester]
